Test results taken from US20200138804A1, “METHODS FOR TREATING CANCER” (X4 Pharmaceuticals, Inc., priority 2017, published 2020).
“Also recorded” adds a separate entry of the source. Like-named read-outs stand apart in the source and are kept apart here. Values belong to the molecule of their own block, whether it stands above or below them.

Columns and labels:
[1] = test system: tumor infiltrating lymphocytes and MDSC in MC38 tumors; experiment: Flow cytometry of Day 8 tumor samples, MC38 model (Groups 5-8); type: in vivo, mouse
Excerpt: On Day 8, tumor samples from Groups 5-8 are obtained and divided into three parts. The first part is process to single cells by flow cytometry; second part is preserved by snap freeze; and the third part is preserved as formalin-fixed, paraffin-embedded (FFPE) blocks for IHC analysis of biomarkers.
Samples subjected to flow cytometry are sorted into the following cell types:

[2] = Solubility of X4P-001 as a function of pH; type: physicochemical
[3] = Phase 1 and 2a trials, oral; cited from earlier work
[4] = test system: murine models of melanoma, renal cell carcinoma, and ovarian cancer; settings: including decreased metastasis and increased overall survival; cited from earlier work
[5] = test system: intra-tumoral CD8+ activated T-cells and FoxP3+ Tregs; experiment: Immunohistochemical analysis of intra-tumor T-cell infiltrates in a melanoma patient before and after X4P-001; type: in vivo, human
Protocol: Intra-tumoral tissue samples were obtained from a patient with melanoma prior to treatment (Day 1), and after three (3) weeks of treatment with CXCR4 inhibitor […]-001 (200 mg BID, oral) (Week 4). Samples were stained for CD8+, indicative of activated T-cells, and FoxP3+, indicative of immunosuppressive regulator T-cells (Tregs). The tables below indicate the total counts and density per square millimeter (mm^2) of CD8+ activated T-cells and FoxP3+ Tregs, as well as the ratio of CD8+ activated T-cells:FoxP3+ Tregs per mm^2 at day 1 and after 3 weeks of treatment.

[6] = in vivo
Protocol: In certain embodiments, the dosage composition may be provided twice a day in divided dosage, approximately 12 hours apart. In other embodiments, the dosage composition may be provided once daily. […] Dosage for oral administration may be from about 100 mg to about 1200 mg once or twice per day.

[7] = test system: advanced clear-cell renal cell carcinoma; settings: nivolumab 3 mg/kg IV every two weeks or everolimus 10 mg orally daily; P<0.001; cited from earlier work
[8] = subcutaneous injection; cited from earlier work

solubility ([2]; aqueous buffer, pH range 3.0 to 8.0 (freely soluble)): > 100 mg/mL
Solubility in water ([2]; water): only slightly soluble
terminal half-life [6]: approximately 14.5 hrs
half-life ([6]; terminal half-life): 12 to 24 h
Molecule: NCCCCN(Cc1nc2ccccc2[nH]1)[C@H]1CCCc2cccnc21 [X4P-001]
Treg, Percent of CD45^+ Population (Mean ± SEM) ([1]; control 0.5 ± 0.08): 0.49 ± 0.14%
CD4^+, Percent of CD45^+ Population (Mean ± SEM) ([1]; control 1.21 ± 0.29): 1.3 ± 0.51%
CD8^+, Percent of CD45^+ Population (Mean ± SEM) ([1]; control 3.91 ± 0.69): 6.11 ± 0.66%
CD8^+/Treg ([1]; control 7.82): 12.47
MDSC, Percent of CD45^+ Population (Mean ± SEM) ([1]; control 28.97 ± 3.6): 16.2 ± 0.67%
effect on CD8^+ T cells ([1]; versus control): increasing CD8^+ T cells
effect on MDSCs ([1]; versus control): significant effect on reducing MDSCs
pharmacodynamic activity: changes in circulating white blood cells (WBCs) [3]: dose- and concentration-related changes in circulating white blood cells
volume of distribution (VL) [3]: high volume of distribution
anti-tumor activity [4]: significant anti-tumor activity
Total FoxP3+/mm^2 ([5]; Week 4, after 3 weeks of 200 mg BID oral, Day 1 before treatment 24.5868158): 25.2 /mm^2
Total CD8+/mm^2 ([5]; Week 4, after 3 weeks of 200 mg BID oral, Day 1 before treatment 56.87565442): 121.4 /mm^2
Total FoxP3+ ([5]; Week 4, after 3 weeks of 200 mg BID oral, Day 1 before treatment 313): 337
Total CD8+ ([5]; Week 4, after 3 weeks of 200 mg BID oral, Day 1 before treatment 720): 1685
intra-tumoral CD8+ T-cell counts ([5]; Week 4 versus Day 1, 200 mg BID oral, FIG. 3): marked increases in CD8+ T-cells; also recorded: marked increase

Molecule: nivolumab: fully human IgG4 monoclonal antibody binding the PD-1 receptor
objective response rate [7]: 25%

Molecule: CO[C@H]1C[C@@H]2CC[C@@H](C)[C@@](O)(O2)C(=O)C(=O)N2CCCC[C@H]2C(=O)O[C@H]([C@H](C)C[C@@H]2CC[C@@H](OCCO)[C@H](OC)C2)CC(=O)[C@H](C)/C=C(\C)[C@@H](O)[C@@H](OC)C(=O)[C@H](C)C[C@H](C)/C=C/C=C/C=C/1C [everolimus]
objective response rate [7]: 5%

Molecule: c1cc(CN2CCCNCCNCCCNCC2)ccc1CN1CCCNCCNCCCNCC1 [Plerixafor, reference compound]
half-life [8]: very short half-life
anti-tumor activity [4]: significant anti-tumor activity
